The structures appear in SMILES notation.

As a reminder, the IC50 is the midpoint of a concentration-inhibition curve.

Chain of human HPK1 (MAP4K1) (Q92918 17-274): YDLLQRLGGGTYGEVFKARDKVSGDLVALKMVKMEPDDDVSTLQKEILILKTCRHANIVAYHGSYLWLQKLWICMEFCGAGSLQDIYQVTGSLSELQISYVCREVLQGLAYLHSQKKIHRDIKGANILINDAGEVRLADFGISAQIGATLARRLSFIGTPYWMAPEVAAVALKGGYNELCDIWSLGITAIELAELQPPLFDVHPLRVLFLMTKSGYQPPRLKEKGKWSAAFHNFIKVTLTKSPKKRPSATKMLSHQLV

The first assay concerns the target human HPK1 (MAP4K1) (Homo sapiens (Human), UniProt Q92918). The assay is described as follows: HPK1 IC50 Assay (TR-FRET peptide phosphorylation). The assay is classed as biochemical. The conditions noted are these: 0.15 nM HPK1, 10 μM ATP, 1 μM STK S1 peptide substrate; geometric mean. Put shortly: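 Pre-activated, dually phosphorylated baculovirus-expressed HPK1 kinase domain (0.15 nM) preincubated 15 min with compound, then reacted 3 h at 25° C with 10 μM ATP and 1 μM STK S1 peptide in BES pH 7.0 buffer. Phosphopeptide read by TR-FRET (665/620 nm); four-parameter fit, geometric-mean IC50.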
Compound `CC(C)n1cnc2cc(-c3cc4c(nc3F)C(C)(C)C(=O)N4[C@H]3C[C@@](C)(N4CCCCC4)C3)nc(Nc3cc(C(=O)NCC(F)F)c(Cl)c(F)c3F)c21` [Example 272, 2-chloro-N-(2,2-difluoroethyl)-3,4-difluoro-5-((6-(5-fluoro-3,3-dimethyl-1-((1s,3s)-3-methyl-3-(piperidin-1-yl)cyclobutyl)-2-oxo-2,3-dihydro-1H-pyrrolo[3,2-b]pyridin-6-yl)-3-isopropyl-3H-imidazo[4,5-c]pyridin-4-yl)amino)benzamide] showed an IC50 of 0.09 nM.
`CCNC(=O)c1cc(Nc2nc(-c3cnc4c(c3)N([C@H]3C[C@@](C)(N5CCCCC5)C3)C(=O)C4(C)C)cc3ncn(C(C)C)c23)c(F)c(F)c1F` [Example 278, 5-((6-(3,3-dimethyl-1-((1s,3s)-3-methyl-3-(piperidin-1-yl)cyclobutyl)-2-oxo-2,3-dihydro-1H-pyrrolo[3,2-b]pyridin-6-yl)-3-isopropyl-3H-imidazo[4,5-c]pyridin-4-yl)amino)-N-ethyl-2,3,4-trifluorobenzamide] displayed an IC50 of 0.2 nM.
Same read-out and setting: to `CCNC(=O)c1cc(Nc2nc(-c3ccc4c(c3)N([C@H]3C[C@@](C)(N5CCCCC5)C3)C(=O)C4(C)C)cc3ncn(C(C)C)c23)c(F)cc1Cl` [Example 290, 2-chloro-5-((6-(3,3-dimethyl-1-((1s,3s)-3-methyl-3-(piperidin-1-yl)cyclobutyl)-2-oxoindolin-6-yl)-3-isopropyl-3H-imidazo[4,5-c]pyridin-4-yl)amino)-N-ethyl-4-fluorobenzamide] belongs 0.07 nM; to `CCNC(=O)c1cc(Nc2nc(-c3cc4c(nc3F)C(C)(C)C(=O)N4[C@H]3C[C@@](C)(N4CCCCC4)C3)cc3ncn(C(C)C)c23)c(F)c(F)c1Cl` [Example 273, 2-chloro-N-ethyl-3,4-difluoro-5-((6-(5-fluoro-3,3-dimethyl-1-((1s,3s)-3-methyl-3-(piperidin-1-yl)cyclobutyl)-2-oxo-2,3-dihydro-1H-pyrrolo[3,2-b]pyridin-6-yl)-3-isopropyl-3H-imidazo[4,5-c]pyridin-4-yl)amino)benzamide], 0.07 nM.

The assay is the same for the next values; noted with them: recombinant HPK1 kinase domain 0.15 nM, 10 μM ATP, 1 μM STK S1 peptide; geometric mean of multiple experiments.
For the compound `CNC(=O)c1cc(Nc2nc(-c3ccc4c(c3)N([C@H]3C[C@@H](N5CCCCC5)C3)C(=O)C43CCN(C(=O)C45CC(C4)C5)CC3)cc3ncn(C4CC4)c23)ccc1C` [Example 156], the IC50 came out at 0.06 nM.
For the compound `CC[C@@H](C)NC(=O)c1cc(Nc2nc(-c3ccc4c(c3)N([C@H]3C[C@@H](N5CCCCC5)C3)C(=O)C43CCN(C(C)=O)CC3)cc3ncn(C(C)C)c23)c(F)cc1C` [Example 87], the IC50 was found to be 0.3 nM.
Still for that read-out and setting: the figure for `CCn1cnc2cc(-c3ccc4c(c3)N([C@H]3C[C@@H](N5CCCCC5)C3)C(=O)C43CCN(C(C)=O)CC3)nc(Nc3ccc(C)c(C(=O)NC)c3)c21` [Example 49] is 0.1 nM; for `CC(=O)N1CCC2(CC1)C(=O)N([C@H]1C[C@@H](N3CCCCC3)C1)c1cc(-c3cc4ncn(C(C)C)c4c(Nc4cc(C(=O)NC(C)(C)C)c(C)cc4F)n3)ccc12` [Example 59] it is 0.3 nM; for `CNC(=O)c1cc(Nc2nc(-c3ccc4c(c3)N([C@H]3C[C@@H](N[C@@H]5CCOC[C@@H]5C)C3)C(=O)C4(C)C)cc3ncn(C(C)C)c23)ccc1C` [Example 12] it is 0.09 nM.
Consider `CNC(=O)c1cc(Nc2nc(-c3ccc4c(c3)N([C@H]3C[C@@H](NCC(C)(C)O)C3)C(=O)C4(C)C)cc3ncn(C(C)C)c23)c(F)cc1C` [Example 15], for which the IC50 stood at 0.1 nM.
Consider `CC(=O)N1CCC2(CC1)C(=O)N([C@H]1C[C@@H](N3C4CCC3COC4)C1)c1cc(-c3cc4ncn(C(C)C)c4c(Nc4cc(C(=O)NC(C)C)c(C)cc4F)n3)ccc12` [Example 77], for which the IC50 was 0.06 nM.
As to `Cc1c(C(=O)NC2(C(F)F)CC2)cc(Nc2nc(-c3cnc4c(c3)N([C@H]3C[C@@](C)(N5C[C@H]6COC[C@H]6C5)C3)C(=O)C4(C)C)cc3ncn(C(C)C)c23)c(F)c1F` [Example 189, N-(1-(Difluoromethyl)cyclopropyl)-5-((6-(3,3-dimethyl-1-((1S,3s)-3-methyl-3-((3 aR,6aS)-tetrahydro-1H-furo[3,4-c]pyrrol-5(3H)-yl)cyclobutyl)-2-oxo-2,3-dihydro-1H-pyrrolo[3,2-b]pyridin-6-yl)-3-isopropyl-3H-imidazo[4,5-c]pyridin-4-yl)amino)-3,4-difluoro-2-methylbenzamide], the IC50 was determined as 0.2 nM.
For `Cc1c(C(=O)NC2(C(F)F)CC2)cc(Nc2nc(-c3cnc4c(c3)N([C@H]3C[C@@](C)(N5CC6CCC(C6)C5)C3)C(=O)C4(C)C)cc3ncn(C(C)C)c23)c(F)c1F` [Example 230, 5-((6-(1-((1s,3s)-3-(3-Azabicyclo[3.2.1]octan-3-yl)-3-methylcyclobutyl)-3,3-dimethyl-2-oxo-2,3-dihydro-1H-pyrrolo[3,2-b]pyridin-6-yl)-3-isopropyl-3H-imidazo[4,5-c]pyridin-4-yl)amino)-N-(1-(difluoromethyl)cyclopropyl)-3,4-difluoro-2-methylbenzamide], the IC50 came to 0.1 nM.
The same measure, in the same setting: to `Cc1cc(F)c(Nc2nc(-c3ccc4c(c3)N([C@H]3C[C@@H](N5CCC(C)(C)C5)C3)C(=O)C43CCN(C4COC4)CC3)cc3ncn(C(C)C)c23)cc1C(=O)NC(C)C` [Example 100] belongs 0.3 nM.
As to `CNC(=O)c1ccc(F)c(Nc2nc(-c3ccc4c(c3)N([C@H]3C[C@@H](N5CCCCC5)C3)C(=O)C43CCN(C(C)=O)CC3)cc3ncn(C4CC4)c23)c1` [Example 97], the IC50 is 0.4 nM.
The same measure, in the same setting: the figure for `CC(C)n1cnc2cc(-c3ccc4c(c3)N([C@H]3C[C@@](C)(N5CCCCC5)C3)C(=O)C4(C)C)nc(Nc3cc(C(=O)NC4(C(F)F)CC4)cc(F)c3F)c21` [Example 243, N-(1-(difluoromethyl)cyclopropyl)-3-((6-(3,3-dimethyl-1-((1s,3s)-3-methyl-3-(piperidin-1-yl)cyclobutyl)-2-oxoindolin-6-yl)-3-isopropyl-3H-imidazo[4,5-c]pyridin-4-yl)amino)-4,5-difluorobenzamide] is 0.05 nM; for `CNC(=O)c1cc(Nc2nc(-c3ccc4c(c3)N([C@H]3C[C@@H](N5CCCCC5)C3)C(=O)C43CCN(C(C)=O)CC3)cc3ncn(C(C)C)c23)c(F)cc1C` [Example 92] it is 0.08 nM.
The same measure, in the same setting: the figure for `CNC(=O)c1cc(Nc2nc(-c3ccc4c(c3)N([C@H]3C[C@@H](N5CC[C@H](F)C5)C3)C(=O)C43CCN(C4COC4)CC3)cc3ncn(C(C)C)c23)c(F)cc1C` [Example 72] is 0.2 nM; for `CNC(=O)c1cc(Nc2nc(-c3ccc4c(c3)N([C@H]3C[C@@H](N5CCC(C)(C)C5)C3)C(=O)C4(C)C)cc3ncn(C(C)C)c23)ccc1C` [Example 3] it is 0.1 nM.
On the same count and under the same terms, to `CNC(=O)c1cc(Nc2nc(-c3ccc4c(c3)N([C@H]3C[C@@H](N5CC6CCC(C5)O6)C3)C(=O)C4(C)C)cc3ncn(C(C)C)c23)c(F)cc1C` [Example 10] belongs 0.1 nM.
`Cc1cc(F)c(Nc2nc(-c3cnc4c(c3)N([C@H]3C[C@@](C)(N5CCCCC5)C3)C(=O)C4(C)C)cc3ncn(C(C)C)c23)cc1C(=O)NC1(C(F)F)CC1` [Example 216, N-(1-(Difluoromethyl)cyclopropyl)-5-((6-(3,3-dimethyl-1-((1s,3s)-3-methyl-3-(piperidin-1-yl)cyclobutyl)-2-oxo-2,3-dihydro-1H-pyrrolo[3,2-b]pyridin-6-yl)-3-isopropyl-3H-imidazo[4,5-c]pyridin-4-yl)amino)-4-fluoro-2-methylbenzamide]: the IC50 worked out at 0.1 nM.
Turning to `COCCNC(=O)c1cc(Nc2nc(-c3ccc4c(c3)N([C@H]3C[C@@H](N5CCCCC5)C3)C(=O)C43CCN(C(C)=O)CC3)cc3ncn(C(C)C)c23)ccc1C` [Example 131], the IC50 turned out to be 0.2 nM.
For the compound `Cc1ccc(Nc2nc(-c3ccc4c(c3)N([C@H]3C[C@@H](N5CC(C)(C)C5)C3)C(=O)C4(C)C)cc3ncn(C(C)C)c23)cc1C(=O)NC1CC1` [Example 121], the IC50 turned out to be 0.1 nM.
For the compound `CCNC(=O)c1ccc(F)c(Nc2nc(-c3ccc4c(c3)N([C@H]3C[C@@](C)(N5CCCCC5)C3)C(=O)C4(C)C)cc3ncn(C(C)C)c23)c1` [Example 240, 3-((6-(3,3-Dimethyl-1-((1s,3s)-3-methyl-3-(piperidin-1-yl)cyclobutyl)-2-oxoindolin-6-yl)-3-isopropyl-3H-imidazo[4,5-c]pyridin-4-yl)amino)-N-ethyl-4-fluorobenzamide], the IC50 was 0.09 nM.
Turning to `CNC(=O)c1cc(Nc2nc(-c3ccc4c(c3)N([C@H]3C[C@@H](N5CCCCC5)C3)C(=O)C4(C)C)cc3ncn(C(C)C)c23)ccc1Cl` [Example 119], the IC50 stood at 0.07 nM.
Same read-out and setting: the figure for `Cc1c(C(=O)NC2(C(F)F)CC2)cc(Nc2nc(-c3cnc4c(c3)N([C@H]3C[C@@](C)(N5CCC(F)C6(CC6)C5)C3)C(=O)C4(C)C)cc3ncn(C(C)C)c23)c(F)c1F` (stereo partly drawn) [Example 187, N-(1-(Difluoromethyl)cyclopropyl)-3,4-difluoro-5-((6-(1-((1s,3s)-3-(8-fluoro-5-azaspiro[2.5]octan-5-yl)-3-methylcyclobutyl)-3,3-dimethyl-2-oxo-2,3-dihydro-1H-pyrrolo[3,2-b]pyridin-6-yl)-3-isopropyl-3H-imidazo[4,5-c]pyridin-4-yl)amino)-2-methylbenzamide] is 0.2 nM; for `CCC1(CC)C(=O)N([C@H]2C[C@@H](N3CCCCC3)C2)c2cc(-c3cc4ncn(C(C)C)c4c(Nc4ccc(C)c(C(=O)NC)c4)n3)ccc21` [Example 45] it is 0.1 nM.
For `Cc1cc(F)c(Nc2nc(-c3ccc4c(c3)N([C@H]3C[C@@H](N5CCCCC5)C3)C(=O)C4(C)C)cc3ncn(C(C)C)c23)cc1C(=O)NC(C)C` [Example 176], the IC50 amounted to 0.2 nM.
Consider `CNC(=O)c1cc(Nc2nc(-c3ccc4c(c3)N([C@H]3C[C@@H](N5CCCCC5)C3)C(=O)C4(C)C)cc3ncn(C(C)C)c23)ccc1C1CC1` [Example 142], for which the IC50 came out at 0.2 nM.
Still for that read-out and setting: the figure for `Cc1ccc(Nc2nc(-c3ccc4c(c3)N([C@H]3C[C@@H](N5CCCCC5)C3)C(=O)C43CCOCC3)cc3ncn(C4CC4)c23)cc1C(N)=O` [Example 126] is 0.07 nM.

The values above are taken from patent US11203591B2, “Substituted 6-azabenzimidazole compounds” (Gilead Sciences, Inc., priority 2018, dated 2021).
